This passage reports Km and Kd results from article PMC3506619, “NADP^+ Binding to the Regulatory Subunit of Methionine Adenosyltransferase II Increases Intersubunit Binding Affinity in the Hetero-Trimer” (PLoS ONE, 2012).

For assay [1], the target named is T1, MAT II (α2 dimer + wild type β hetero-trimer) (Homo sapiens, UniProt P31153, G193S/A233V, form not given).
T1 construct: gene MAT2A; hetero-trimer 2:1; with Methionine adenosyltransferase 2 subunit beta
Nature of the assay: MAT activity assay (AdoMet synthesis). It is filed as biochemical. As to conditions: 5 mM methionine, 37 °C, no added NADP+. The text has this: MAT activity assay (AdoMet synthesis) on MAT II (α2 dimer + wild type β hetero-trimer)

The target of assay [2] is T2, Truncated MAT II (α2 dimer + ΔS16 β) (Homo sapiens, UniProt P31153, G193S/A233V).
T2 construct: gene MAT2A; ratio 2:1; with Methionine adenosyltransferase 2 subunit beta
T2 sequence (P31153 whole entry G193S/A233V, stated change not applied, the tested form may be a part): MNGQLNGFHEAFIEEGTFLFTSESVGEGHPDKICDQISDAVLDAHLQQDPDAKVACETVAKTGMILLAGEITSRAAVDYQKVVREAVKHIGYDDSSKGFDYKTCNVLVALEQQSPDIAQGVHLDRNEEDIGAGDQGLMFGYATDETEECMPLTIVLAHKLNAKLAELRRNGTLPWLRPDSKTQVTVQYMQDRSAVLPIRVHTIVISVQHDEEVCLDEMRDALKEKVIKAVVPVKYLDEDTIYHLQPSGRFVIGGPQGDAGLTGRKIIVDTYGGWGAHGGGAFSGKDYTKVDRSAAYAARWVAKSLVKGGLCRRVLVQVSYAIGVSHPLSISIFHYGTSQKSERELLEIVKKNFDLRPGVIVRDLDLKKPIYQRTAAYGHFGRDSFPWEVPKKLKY
T2 sequence (Q9NZL9 17-334 partner limits assumed, stated change not applied): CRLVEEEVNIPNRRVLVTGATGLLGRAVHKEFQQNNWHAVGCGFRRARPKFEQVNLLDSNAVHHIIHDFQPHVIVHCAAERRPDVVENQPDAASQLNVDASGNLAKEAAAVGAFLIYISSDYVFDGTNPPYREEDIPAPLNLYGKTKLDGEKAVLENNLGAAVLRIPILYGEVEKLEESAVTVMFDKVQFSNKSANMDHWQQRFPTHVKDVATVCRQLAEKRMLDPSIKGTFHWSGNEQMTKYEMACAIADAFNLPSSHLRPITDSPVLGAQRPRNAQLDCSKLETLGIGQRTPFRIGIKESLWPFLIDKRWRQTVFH
Nature of the assay: MAT activity assay (AdoMet synthesis). It is filed as biochemical. To be noted: 5 mM methionine, 37 °C, no added NADP+. An excerpt:
MAT activity assay (AdoMet synthesis) on Truncated MAT II (α2 dimer + ΔS16 β)

The target in assay [3] is T3, refolded-α2 (MAT α2 homo-dimer) (Homo sapiens, UniProt P31153, G193S/A233V).
T3 construct: gene MAT2A; 43447 Da; dimer (tetramer at higher concentration); all cloned ORFs carry A233V and G193S
T3 sequence (P31153 whole entry G193S/A233V): as the sequence (P31153 whole entry G193S/A233V, stated change not applied, the tested form may be a part) above
In words: MAT activity assay (AdoMet synthesis). In kind it is biochemical. To be noted: 5 mM methionine, 37 °C, no added NADP+. The text has this:
MAT activity assay (AdoMet synthesis) on refolded-α2 (MAT α2 homo-dimer)

The target of assay [4] is T4, MAT β subunit (regulatory β subunit, V1 form) (Homo sapiens, UniProt Q9NZL9, K163A/Y159F).
T4 construct: gene MAT2B; full length V1 from GST fusion in E. coli, TEV-cut, GSH linker retained at N-terminus; monomer/dimer equilibrium
T4 sequence (Q9NZL9 1-334 Y159F/K163A): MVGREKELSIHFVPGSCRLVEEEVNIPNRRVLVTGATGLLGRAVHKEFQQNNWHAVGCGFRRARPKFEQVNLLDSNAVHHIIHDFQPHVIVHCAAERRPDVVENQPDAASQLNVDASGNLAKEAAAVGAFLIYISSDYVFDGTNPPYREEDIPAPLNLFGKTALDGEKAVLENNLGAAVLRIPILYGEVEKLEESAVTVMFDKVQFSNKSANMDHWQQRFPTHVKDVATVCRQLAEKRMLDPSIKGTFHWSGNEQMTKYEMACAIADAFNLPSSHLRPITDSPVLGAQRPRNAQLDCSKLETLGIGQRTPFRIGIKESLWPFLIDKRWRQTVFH
In words: isothermal titration calorimetry. It is filed as binding. For orientation: ITC needs no label: the signal is the heat of the interaction.

Assay [5] addresses T5, MAT β subunit (regulatory β subunit, V1 form) (Homo sapiens, UniProt Q9NZL9).
T5 construct: gene MAT2B; full length V1 from GST fusion in E. coli, TEV-cut, GSH linker retained at N-terminus; monomer/dimer equilibrium
T5 sequence (Q9NZL9 1-334): T4 sequence (Q9NZL9 1-334 Y159F/K163A) with F159Y, A163K
In words: isothermal titration calorimetry. In kind it is binding. To be noted: read-out: NADP^+→β. The text has this: isothermal titration calorimetry on MAT β subunit (regulatory β subunit, V1 form)

Molecules are shown by their SMILES. Changes are numbered by the printed parent chain.

T1 sequence (P31153 whole entry G193S/A233V, form open, one chain of several): as the sequence (P31153 whole entry G193S/A233V, stated change not applied, the tested form may be a part) above

Regarding `Nc1ncnc2c1ncn2[C@@H]1O[C@H](COP(=O)(O)OP(=O)(O)OP(=O)(O)O)[C@@H](O)[C@H]1O` [ATP], the values for the Michaelis constant (Km) in assay [1], in assay [2] and in assay [3] were 125 ± 32.2 µM, 151 ± 81.4 µM and 254 ± 66.2 µM, respectively.

In the case of `NC(=O)c1ccc[n+]([C@@H]2O[C@H](COP(=O)(O)OP(=O)(O)OC[C@H]3O[C@@H](n4cnc5c(N)ncnc54)[C@H](OP(=O)(O)O)[C@@H]3O)[C@@H](O)[C@H]2O)c1` [NADP^+], the Kd in assay [4] was above 150000 nM; in assay [5] it was 1700 nM.

For orientation: Km means the concentration of substrate that gives half-maximal velocity.
